Numbered stars: 1 amine (or outer) side, 2 acyl side, 3 side chain; on linkers, the order of the positions; unused ones are H or OH. Square brackets hold non-standard residues; d marks the D form. Peptide text beside a SMILES is read from it. 4Abz(3-OiBu) = CC(C)COc1cc(C(=O)[*:2])ccc1N[*:1]; X3 = CC(C)Oc1cc(C(=O)[*:2])ccc1N[*:1]
Assays:
[1] = target: T1, Histone acetyltransferase p300/Hypoxia-inducible factor 1-alpha (Homo sapiens, UniProt Q09472+Q16665); test: Inhibition of human fluorescein-labeled HIF-1alpha (786 to 826 residues)/ human GST-fused p300 CH1 domain (323 to 423 residues) protein-protein interaction after 1 hr by fluorescence polarization assay; assay type: protein-complex assay
Target sequence in this assay (Q09472 whole entry, the tested form may be a part): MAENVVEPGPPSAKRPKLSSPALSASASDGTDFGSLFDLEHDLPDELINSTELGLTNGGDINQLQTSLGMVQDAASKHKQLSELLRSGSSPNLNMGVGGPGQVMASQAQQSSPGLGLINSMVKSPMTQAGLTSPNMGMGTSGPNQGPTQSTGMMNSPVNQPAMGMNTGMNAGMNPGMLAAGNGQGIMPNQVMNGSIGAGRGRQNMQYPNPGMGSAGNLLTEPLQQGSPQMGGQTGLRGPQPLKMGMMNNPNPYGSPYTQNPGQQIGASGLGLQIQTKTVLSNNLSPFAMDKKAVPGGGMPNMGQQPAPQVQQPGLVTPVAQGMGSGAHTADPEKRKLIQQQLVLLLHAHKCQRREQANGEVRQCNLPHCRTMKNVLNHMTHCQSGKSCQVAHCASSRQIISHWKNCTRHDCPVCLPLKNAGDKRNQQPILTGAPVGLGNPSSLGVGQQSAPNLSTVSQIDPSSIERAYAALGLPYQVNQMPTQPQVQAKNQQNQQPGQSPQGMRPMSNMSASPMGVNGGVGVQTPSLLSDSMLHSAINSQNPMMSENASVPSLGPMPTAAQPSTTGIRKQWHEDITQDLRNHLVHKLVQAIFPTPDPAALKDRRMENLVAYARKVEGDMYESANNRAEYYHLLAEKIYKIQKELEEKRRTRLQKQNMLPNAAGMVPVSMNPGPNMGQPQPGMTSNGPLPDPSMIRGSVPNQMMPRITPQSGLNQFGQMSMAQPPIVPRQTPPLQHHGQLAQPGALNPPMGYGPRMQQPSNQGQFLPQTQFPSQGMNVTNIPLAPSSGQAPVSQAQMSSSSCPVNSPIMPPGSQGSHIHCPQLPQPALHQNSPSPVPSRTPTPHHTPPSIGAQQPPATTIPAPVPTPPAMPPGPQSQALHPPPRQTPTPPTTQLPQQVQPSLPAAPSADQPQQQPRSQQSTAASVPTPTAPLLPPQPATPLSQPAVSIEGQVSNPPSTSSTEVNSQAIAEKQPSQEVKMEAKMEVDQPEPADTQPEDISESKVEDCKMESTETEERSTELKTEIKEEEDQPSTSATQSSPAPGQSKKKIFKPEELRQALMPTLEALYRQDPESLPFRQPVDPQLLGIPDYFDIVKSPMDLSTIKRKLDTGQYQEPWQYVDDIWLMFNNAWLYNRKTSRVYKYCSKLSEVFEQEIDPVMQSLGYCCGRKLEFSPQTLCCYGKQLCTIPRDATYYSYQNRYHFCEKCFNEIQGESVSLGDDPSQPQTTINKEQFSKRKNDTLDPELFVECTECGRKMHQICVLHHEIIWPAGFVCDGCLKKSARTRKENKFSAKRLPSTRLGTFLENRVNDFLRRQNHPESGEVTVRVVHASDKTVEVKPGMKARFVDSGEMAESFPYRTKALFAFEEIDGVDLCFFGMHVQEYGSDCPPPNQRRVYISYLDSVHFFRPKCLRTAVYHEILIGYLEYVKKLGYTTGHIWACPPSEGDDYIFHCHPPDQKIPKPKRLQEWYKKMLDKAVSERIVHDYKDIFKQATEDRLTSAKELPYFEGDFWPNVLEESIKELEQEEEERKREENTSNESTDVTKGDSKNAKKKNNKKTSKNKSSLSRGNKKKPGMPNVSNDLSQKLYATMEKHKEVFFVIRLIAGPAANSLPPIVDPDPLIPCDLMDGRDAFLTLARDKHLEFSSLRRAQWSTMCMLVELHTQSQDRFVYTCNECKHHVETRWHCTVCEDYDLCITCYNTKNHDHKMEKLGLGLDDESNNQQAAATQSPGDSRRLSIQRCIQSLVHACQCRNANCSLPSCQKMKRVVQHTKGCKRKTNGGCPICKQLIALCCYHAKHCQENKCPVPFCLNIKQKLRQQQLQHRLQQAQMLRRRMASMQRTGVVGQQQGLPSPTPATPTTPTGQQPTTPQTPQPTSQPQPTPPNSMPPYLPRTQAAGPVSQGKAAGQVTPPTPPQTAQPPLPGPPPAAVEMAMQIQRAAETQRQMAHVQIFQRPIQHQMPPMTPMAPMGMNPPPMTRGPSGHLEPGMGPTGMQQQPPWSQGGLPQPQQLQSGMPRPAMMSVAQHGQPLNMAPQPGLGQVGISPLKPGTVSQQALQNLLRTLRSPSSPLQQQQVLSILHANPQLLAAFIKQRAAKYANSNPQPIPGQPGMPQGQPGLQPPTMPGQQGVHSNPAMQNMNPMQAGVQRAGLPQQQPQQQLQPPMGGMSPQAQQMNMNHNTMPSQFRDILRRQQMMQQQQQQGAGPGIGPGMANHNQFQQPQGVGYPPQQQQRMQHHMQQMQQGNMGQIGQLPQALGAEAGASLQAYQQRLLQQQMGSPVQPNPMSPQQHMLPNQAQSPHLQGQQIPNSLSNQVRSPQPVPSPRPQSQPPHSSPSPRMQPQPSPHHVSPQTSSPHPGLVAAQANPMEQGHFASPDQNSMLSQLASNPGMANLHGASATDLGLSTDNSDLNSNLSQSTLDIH
Target sequence in this assay (Q16665 whole entry, the tested form may be a part): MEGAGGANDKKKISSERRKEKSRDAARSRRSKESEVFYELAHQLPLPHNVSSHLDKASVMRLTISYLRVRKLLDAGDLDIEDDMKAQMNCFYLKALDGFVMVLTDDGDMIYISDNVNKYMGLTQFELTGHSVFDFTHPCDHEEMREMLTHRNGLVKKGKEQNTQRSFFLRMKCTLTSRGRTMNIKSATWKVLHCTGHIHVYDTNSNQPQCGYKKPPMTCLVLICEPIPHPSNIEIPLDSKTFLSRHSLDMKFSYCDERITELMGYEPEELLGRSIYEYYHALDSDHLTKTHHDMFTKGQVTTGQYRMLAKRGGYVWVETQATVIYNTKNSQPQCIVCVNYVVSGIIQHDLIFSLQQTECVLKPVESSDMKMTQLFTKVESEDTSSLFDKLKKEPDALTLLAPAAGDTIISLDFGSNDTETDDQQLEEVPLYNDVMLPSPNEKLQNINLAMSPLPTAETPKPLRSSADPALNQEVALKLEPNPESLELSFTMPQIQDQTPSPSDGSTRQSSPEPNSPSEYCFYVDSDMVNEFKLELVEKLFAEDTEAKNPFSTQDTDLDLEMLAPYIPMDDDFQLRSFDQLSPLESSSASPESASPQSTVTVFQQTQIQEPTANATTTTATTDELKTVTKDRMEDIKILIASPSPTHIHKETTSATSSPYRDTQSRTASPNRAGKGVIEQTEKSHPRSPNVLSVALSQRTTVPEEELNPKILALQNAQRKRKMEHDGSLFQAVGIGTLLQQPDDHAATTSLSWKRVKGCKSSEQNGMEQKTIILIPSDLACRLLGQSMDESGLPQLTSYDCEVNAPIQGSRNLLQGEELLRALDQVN

[2] = target: T2, Histone acetyltransferase p300 (Homo sapiens, UniProt Q09472); test: Binding affinity to human GST-fused p300 CH1 domain (323 to 423 residues) under hypoxic condition by SPR assay
T2 sequence (Q09472 whole entry, the tested form may be a part): as the sequence (Q09472 whole entry, the tested form may be a part) above

[3] = target: T3, Hypoxia-inducible factor 1-alpha (Homo sapiens, UniProt Q16665); test: Inhibition of HIF-1 dimerization in HEK293 cells after 24 hrs by renilla luciferase reporter gene assay; assay type: cell-based
Target sequence in this assay (Q16665 whole entry, the tested form may be a part): as the sequence (Q16665 whole entry, the tested form may be a part) above

[4] = target: T1, Histone acetyltransferase p300/Hypoxia-inducible factor 1-alpha; test: Inhibition of fluorescein-labeled HIF-1alpha (786 to 826 residues) (unknown origin)/GST-fused p300 CH1 domain (323 to 423 residues) (unknown origin) protein-protein interaction after overnight incubation by time-resolved fluorescence assay; assay type: protein-complex assay
Target sequence in this assay (Q09472 whole entry, the tested form may be a part): as the sequence (Q09472 whole entry, the tested form may be a part) above
Target sequence in this assay (Q16665 whole entry, the tested form may be a part): as the sequence (Q16665 whole entry, the tested form may be a part) above

[5] = target: T3, Hypoxia-inducible factor 1-alpha; test: Binding affinity to HIF-1alpha (unknown origin) PAS B domain assessed as incorporation at His246 residues by mass spectrometry
[6] = target: T3, Hypoxia-inducible factor 1-alpha; test: Binding affinity to HIF-1alpha (unknown origin) PAS B domain assessed as incorporation at Cys255 residues by mass spectrometry; set-up: concentration or dose not given beside the values
[7] = target: T3, Hypoxia-inducible factor 1-alpha; test: Binding affinity to C-terminal Avi/FLAG-tagged HIF-1alpha (unknown origin) assessed as incorporation at His266 residues by mass spectrometry
[8] = target: T3, Hypoxia-inducible factor 1-alpha; test: Binding affinity to HIF-1alpha (unknown origin) PAS B domain assessed as incorporation at Lys297 residues by mass spectrometry
[9] = target: T3, Hypoxia-inducible factor 1-alpha; test: Binding affinity to HIF-1alpha (unknown origin) PAS B domain assessed as incorporation at Cys334 residues by mass spectrometry
[10] = target: T1, Histone acetyltransferase p300/Hypoxia-inducible factor 1-alpha; test: Inhibition of HIF-1alpha/p300 protein-protein interaction in human cells after 2 hrs by immunoprecipitation assay; assay type: cell-based
Target sequence in this assay (Q09472 whole entry, the tested form may be a part): as the sequence (Q09472 whole entry, the tested form may be a part) above
Target sequence in this assay (Q16665 whole entry, the tested form may be a part): as the sequence (Q16665 whole entry, the tested form may be a part) above

[11] = target: T1, Histone acetyltransferase p300/Hypoxia-inducible factor 1-alpha; test: Inhibition of HIF-1alpha (unknown origin)/p300 (unknown origin) protein-protein interaction; assay type: protein-complex assay
Target sequence in this assay (Q09472 whole entry, the tested form may be a part): as the sequence (Q09472 whole entry, the tested form may be a part) above
Target sequence in this assay (Q16665 whole entry, the tested form may be a part): as the sequence (Q16665 whole entry, the tested form may be a part) above

[12] = target: T1, Histone acetyltransferase p300/Hypoxia-inducible factor 1-alpha; test: Inhibition of HIF-1alpha (unknown origin)/p300 (unknown origin) protein-protein interaction by fluorescence anisotropy; assay type: protein-complex assay
Target sequence in this assay (Q09472 whole entry, the tested form may be a part): as the sequence (Q09472 whole entry, the tested form may be a part) above
Target sequence in this assay (Q16665 whole entry, the tested form may be a part): as the sequence (Q16665 whole entry, the tested form may be a part) above

[13] = target: T2, Histone acetyltransferase p300; test: Binding affinity to p300 CH1 domain (unknown origin) by tryptophan fluorescence assay
[14] = target: T3, Hypoxia-inducible factor 1-alpha; test: Binding affinity to Cys255 residue of C-terminal Avi/FLAG-tagged HIF-1alpha (unknown origin) after 1 hr by AlphaScreen assay
Target sequence in this assay (Q16665 whole entry, the tested form may be a part): as above

[15] = target: T2, Histone acetyltransferase p300; test: Binding affinity to human p300 CH1 domain (330 to 420 residues) expressed in Escherichia coli BL21(DE3) by fluorescence anisotropy competition assay
[16] = target: T3, Hypoxia-inducible factor 1-alpha; test: Binding affinity to His-tagged HIF-1alpha (1 to 350 residues) (unknown origin) PAS B domain expressed in Escherichia coli BL21(DE3) by ITC
Target sequence in this assay (Q16665 whole entry, the tested form may be a part): as above

[17] = target: T1, Histone acetyltransferase p300/Hypoxia-inducible factor 1-alpha; test: Inhibition of fluorescein-labeled HIF-1alpha (786 to 826 residues) (unknown origin)/GST-fused p300 CH1 domain (323 to 423 residues) (unknown origin) protein-protein interaction at 500 uM after overnight incubation by time-resolved fluorescence assay relative to control; assay type: protein-complex assay
[18] = target: T2, Histone acetyltransferase p300; test: Binding affinity to p300 (unknown origin) by fluorescence anisotrophy
MDA-MB-231 = test: Antitumor activity against human MDA-MB-231 cells xenografted in mouse assessed as reduction in tumor volume at 15 mg/kg administered on alternative days for 28 days relative to control; assay type: functional; set-up: scale not given: the % may be the effect or the level left

With `CN1C(=O)[C@@]2(Cc3ccc(C[C@]45SS[C@](CO)(C(=O)N4C)N(C)C5=O)cc3)SS[C@]1(CO)C(=O)N2C` the IC50 [1] was 1500 nM and the Kd [2] was 750 nM.
For `C[n+]1c2cc(N)ccc2cc2ccc(N)cc21` [EUFLAVINE], the IC50 [3] was 1000 nM.
`COc1ccc([C@@]2(c3nc(N)[nH]c3-c3ccc(O)cc3)N=C3N=CC=C4c5ccccc5N=C2N43)cc1` showed an IC50 [4] of 276000 nM.
`COC(=O)/C=C1/OC(c2ccc(O)cc2)=CC1=O` gave an Activity [5] of 10 to 20%, an Activity [6] of over 50% and an Activity [7] of 10 to 20%. For the same compound, the Activity [8] was 10 to 20% and the Activity [9] was 10 to 20%.
For `C=C1C(=O)OC2C1CCC(=C)C1CC(=O)C(=C)C12` (centres undefined), the Activity [5] was 10 to 20%, the Activity [6] was over 50% and the Activity [7] was 10 to 20%. The Activity [8] was 10 to 20% and the Activity [9] was 10 to 20%.
Work on `CN1C(=O)[C@]2(Cc3cn([C@]45C[C@@]67SS[C@@](CO)(C(=O)N6[C@H]4Nc4ccccc45)N(C)C7=O)c4ccccc34)SS[C@@]1(CO)C(=O)N2C` [CHETOMIN] yielded an IC50 [10] of 540 nM.
Work on `C=CC(=O)N1CCc2ccccc21` yielded an Activity [6] of 25%.
`CN1C(=O)[C@@]23C[C@]4([C@]56C[C@@]78SS[C@@](CO)(C(=O)N7[C@H]5Nc5ccccc56)N(C)C8=O)c5ccccc5N[C@@H]4N2C(=O)[C@]1(CO)SS3` [CHAETOCIN] showed an IC50 [11] of 12500 nM.
Work on `COc1ccc(S(=O)(=O)N(Cc2ccc(CN3CCOCC3)cc2)C2CCC2)cc1OC` yielded an IC50 [11] of 1000 nM.
For `COc1ccc(S(=O)(=O)N(Cc2ccc3c(c2)C=CC(C)(C)O3)c2ccccc2)cc1OC`, the IC50 [11] was 590 nM.
H-QLTSYDCEVNAPIQGSRNLLQGEELLRALDQVN-OH gave an IC50 [12] of 89000 nM.
`CCCC[C@@H](C(=O)N1CCN([C@@H](CCC(N)=O)C(N)=O)C(=O)[C@@H]1C)N1CCN[C@@H](CC(C)C)C1=O` showed a Kd [13] of 30000 nM.
`CC1=CC(O)(C#Cc2ccccc2)C=CC1=O` (centres undefined) showed an Activity [5] of 10 to 20%, an Activity [6] of over 50% and an Activity [7] of 10 to 20%. It also gave an Activity [8] of 10 to 20% and an Activity [9] of 10 to 20%.
`COc1ccc(S(=O)(=O)N(Cc2ccc(CN3CCOCC3)cc2)c2ccccc2)cc1OC` was tested, and the IC50 [11] was 900 nM.
Compound `O=[N+]([O-])c1ccc2c(c1)S(=O)(=O)C=C2` has an Activity [6] of over 50% and an IC50 [14] of 43 nM.
`CC(C)COc1cc(C(=O)O)ccc1NC(=O)c1ccc(NC(=O)c2ccc(N)c(OC(C)C)c2)c(OCC(C)C)c1` gave an IC50 [15] of 24000 nM.
Compound `COc1ccc(S(=O)(=O)N(Cc2ccc3c(n2)C=CC(C)(C)O3)C2CCC2)cc1OC` has an IC50 [11] of 280 nM.
In the case of `CC(C)C[C@@H]1NC(=O)[C@H](CS)NC(=O)[C@H](Cc2ccc(O)cc2)NC(=O)[C@H](C(C)C)NC(=O)[C@H](Cc2ccccc2)NC(=O)[C@H](CC(C)C)NC1=O`, the Kd [16] is reported as 124 nM.
In the case of `COc1ccc([C@]2(c3nc(N)[nH]c3-c3ccc(O)cc3)N=C3N=CC=C4c5ccccc5N=C2N43)cc1`, the inhibition [17] is reported as 27%.
H-QLTSYDCEVNA-OH showed a Kd [18] of 6740 nM.
In the case of `CC[C@H](C)[C@H](NC(=O)[C@@H]1CCCN1C(=O)[C@H](C)NC(=O)[C@H](CC(N)=O)NC(=O)[C@@H](NC(=O)[C@H](CCC(=O)O)NC(=O)[C@H](CO)NC(=O)[C@H](CC(=O)O)NC(=O)[C@H](Cc1ccc(O)cc1)NC(=O)[C@H](CO)NC(=O)[C@@H](NC(=O)[C@H](CC(C)C)NC(=O)[C@@H](N)CCC(N)=O)[C@@H](C)O)C(C)C)C(=O)N[C@@H](CCC(N)=O)C(=O)NCC(=O)N[C@@H](CO)C(=O)N[C@@H](CCCNC(=N)N)C(=O)N[C@@H](CC(N)=O)C(=O)N[C@@H](CC(C)C)C(=O)N[C@@H](CC(C)C)C(=O)N[C@@H](CCC(N)=O)C(=O)NCC(=O)Nc1ccc(C(=O)Nc2ccc(C(=O)Nc3ccc(C(=O)NCC(N)=O)cc3OC(C)C)cc2OCC(C)C)cc1OCC(C)C` (H-QLTSYDSEVNAPIQGSRNLLQG[4Abz(3-OiBu)][4Abz(3-OiBu)][X3]G-NH2), the IC50 [12] is reported as 83000 nM.
Compound `CC(C)C[C@@H]1NCCN([C@@H](CC(C)C)C(=O)N2CCN([C@@H](CCC(N)=O)C(N)=O)C(=O)[C@@H]2C)C1=O` has an Activity (MDA-MB-231) of 50%.
For `CN1C(=O)[C@@]2(Cc3ccc(CCc4ccc(C[C@@]56SS[C@@](CO)(C(=O)N5C)N(C)C6=O)cc4)cc3)NC(=O)[C@]1(CO)SS2`, the IC50 [1] was 600 to 700 nM and the Kd [2] was 3620 nM.
`CC(C)COc1cc(C(=O)Nc2ccc(C(=O)Nc3ccc(C(=O)O)cc3OC(C)C)cc2OCC(C)C)ccc1N` showed an IC50 [15] of 9190 nM.

From ChEMBL document CHEMBL4480430, “Advances in inhibition of protein-protein interactions targeting hypoxia-inducible factor-1 for cancer therapy” (Bioorg Med Chem, 2019)
